Data from US20240409944A1, “COMPOSITIONS AND METHODS FOR THE INHIBITION OF TUMOR METASTASIS AND HORIZONTAL GENE TRANSFER” (The Regents of the University of Colorado, a body corporate, priority 2021, published 2024).
Entries after “also recorded” stand apart in the source; their conditions may differ. Where two headings read alike, the source gives them in different places. *1 amine or outer side, *2 acyl side, *3 side chain or, on linkers, in order; H or OH if unused. Where a SMILES comes first, the peptide text is derived from it. Bridges are numbered along the chain shown (N, C = ends). Roman numbers before positions name the chains, in order. [ ]: non-standard residue; d: D form. Actinocin(9to1) = Cc1c2oc3c(C)ccc(C(=O)[*:1])c3nc-2c(C(=O)[*:2])c(N)c1=O; NMeV = CN[C@H](C(=O)O)C(C)C; Sar = CNCC(=O)O

Tests used:
[1] = test system: RPE1-Venus-Parkin and MDA-MB-231-H2B-mCherry co-culture; test: Intercellular gene transfer in co-culture, flow cytometric analysis; format: cell-based
F-actin = F-actin stability (Alexa Fluor 594 Phalloidin); format: cell-based; details: co-cultured RPE1-VEP and MDA-MB-231-H2BmCherry
Description: Immunofluorescence microscopy was performed as described previously.

[2] = test system: MDASC43 & RPE1-VEP co-culture; test: 48-hour live cell imaging of CIC structures, MDASC43 co-culture; format: cell-based; details: 10 μM Doxorubicin, 100 μM Hygromycin B; for effect on number/frequency of CIC structures / average duration of CIC structures / time at which CIC structures were concentrated: 20 μM Actinomycin D; for average duration of CIC structures / time at which CIC structures were concentrated: alone or combined
[3] = test system: HUVEC and MDA-MB-231-H2B-mCherry co-culture; test: Live cell imaging of CIC structures, HUVEC co-culture; format: cell-based, Human; details: preliminary
[4] = test system: MDA-MB-231-H2B-mCherry and RPE1-Venus-Parkin co-culture; test: Cell entrapment (cell-in-cell structure formation), live-cell imaging; details: inhibitor treatment
[5] = compound present in the co-culture, Hygromycin B 100 μM

Row | Compound | effect on gene transfer [1, 5] | effect on number/frequency of CIC structures [2] | average duration of CIC structures [2] [h] | time at which CIC structures were concentrated [2] [h] | also measured
1 | Cc1cn([C@H]2C=C[C@@H](CO)O2)c(=O)[nH]c1=O [Stavudine] | – | – | – | – | IC50 ([1]; later used as positive control of the screen, read-out: IC50 as potential tangocytosis inhibitor): 1830 nM
2 | C/C1=C/C(=O)O[C@@H]2C[C@@H](CC[C@H](C)/C=C\CC1)O[C@@](O)([C@@H]1CSC(=O)N1)C2 [Latrunculin B] | significantly decreased | – | – | – | concentration that resulted in the lowest percentage of gene transfer to RPE cells [1]: 3 µM; F-actin levels (F-actin): significantly decreased
3 | COc1ccc(C2CC(c3ccccc3)=NN2c2ccc(S(N)(=O)=O)cc2)cc1 (centres unmarked) [ML141] | decreased; also recorded: significant effect | – | – | – | –
4 | Cc1c2oc3c(C)ccc(C(=O)N[C@@H]4C(=O)N[C@H](C(C)C)C(=O)N5CCC[C@H]5C(=O)N(C)CC(=O)N(C)[C@@H](C(C)C)C(=O)O[C@@H]4C)c3nc-2c(C(=O)N[C@@H]2C(=O)N[C@H](C(C)C)C(=O)N3CCC[C@H]3C(=O)N(C)CC(=O)N(C)[C@@H](C(C)C)C(=O)O[C@@H]2C)c(N)c1=O [Actinomycin D] (I: T[dV]P[Sar][NMeV] / II: T[dV]P[Sar][NMeV]; ester I:1-I:C, II:1-II:C; linker I:N-II:N via Actinocin(9to1)) | – | significantly increased | 6.04 | 9.2 to 15.3 | effect on gene transfer [1]: prevents; gene transfer percentage [1]: 1.5%; average CIC structure duration ([3]; 100 μM Hygromycin B, 20 μM Actinomycin D, or combination, 1 focus field): 2.1 h; time at which CIC structures were concentrated ([3]; 100 μM Hygromycin B, 20 μM Actinomycin D, or combination): 2.9 to 5.1 h; effect on CIC structures (induction, frequency) [3]: induced
5 | COc1cccc2c1C(=O)c1c(O)c3c(c(O)c1C2=O)C[C@@](O)(C(=O)CO)C[C@@H]3O[C@H]1C[C@H](N)[C@H](O)[C@H](C)O1 [Doxorubicin] | inhibiting | most CIC structure formation; also recorded: significantly increased | 11.5 | 13.6 to 25.1 | effect on CIC structure duration [2]: significantly higher; also recorded: significantly increased
6 | C[C@@H](N)[C@H]1CC[C@H](C(=O)Nc2ccncc2)CC1 [Y27632] | effect of ROCKs perturbation by RNA depletion was phenocopied | – | – | – | effect on cell entrapment (cell-in-cell structure formation) [4]: effect of ROCKs perturbation by RNA depletion was phenocopied
